Values quoted from earlier work as cited in patent US20030065040A1, “Pharmaceutical compositions including sampatrilat dispersed in a lipoidic vehicle” (priority 2001, published 2003).
Read-outs that look alike come from different tables or passages of the source.

Legend:
[1] = man; reported to be as low as
[2] = dogs; reported to be as low as

oral bioavailability [1]: 2%
oral bioavailability [2]: 5%
SMILES: CS(=O)(=O)N[C@@H](CCCCN)C(=O)NC[C@H](CC1(C(=O)N[C@@H](Cc2ccc(O)cc2)C(=O)O)CCCC1)C(=O)O [Sampatrilat, sampatrilat]
